Data on 19 compounds can be found in publication PMC8777765, “Identification of Cyclic Sulfonamides with an N-Arylacetamide Group as α-Glucosidase and α-Amylase Inhibitors: Biological Evaluation and Molecular Modeling” (Pharmaceuticals, 2022).

What is called pIC50 is −log10 of the IC50, conventionally taken in molar units. By melting point is commonly meant the temperature of the solid-liquid transition. What is called pKi is the Ki on a negative log10 scale, so that one unit is a factor of ten.

pIC50, pKi: −log10 of the molar value.

Data set [1] concerns the target human 11β-hydroxysteroid dehydrogenase type 1 (11β-HSD1). Also noted: method as in PMID 21212546. Conditions: cited from earlier work.
Data set [2] deals with severe acute respiratory syndrome coronavirus 2 (SARS-CoV-2). Set-up: method as in PMID 33160024. The settings on record: cited from earlier work.
The next data set concerns the target aldose reductase. Set-up: method as in PMID 22036211. Conditions: cited from earlier work.
The target in data set [3] is α-glucosidase. Also noted: method as in PMID 32024621. The settings on record: read-out: α-glucosidase IC50 (literature); cited from earlier work.
The test system of data set [4] is yeast α-glucosidase enzyme. The experiment in a line: in vitro α-glucosidase inhibition (PNPG substrate). Conditions: for pIC50: PNPG substrate. It is filed as biochemical, Saccharomyces cerevisiae.
Experimental: α-Glucosidase inhibitions were determined following a modified spectroscopic method [87]. A solution of α-glucosidase (obtained from Saccharomyces cerevisiae (Sigma-Aldrich, Munich, Germany)) was prepared in phosphate buffer (pH 6.8, 100 mM). Wells of the 96-well microliter plates were filled with test sample solutions (12.5 μL) prepared in DMSO. After this, enzyme (0.5 U/mL, 40 μL) and then phosphate buffer (100 mM, 120 μL) were also mixed with the test sample solutions. Incubation at 37 °C for 5 min and then addition of 40 μL of the substrate, p-nitrophenyl-α-D-glucopyranoside (PNPG) (5 nM, Sigma-Aldrich, Munich, Germany), was performed. Mixtures were again incubated for 30 min, and absorbance was measured at 405 nm and 37 °C for the released 4-nitrophenol in each mixture. […] Each experiment was carried out thrice, and percentage inhibitions were determined with the help of following expression, followed by the determination of IC50 values. % Inhibition = [(Acontrol − Asample)/Acontrol] × 100 where A is absorbance.
In data set [5] the target is T1, Aspergillus oryzae α-amylase (Aspergillus oryzae, UniProt P0C1B3).
T1 construct: purchased Sigma-Aldrich, Munich, Germany
The experiment in a line: in vitro α-amylase inhibition (starch substrate, DNSA). In kind it is biochemical.
Experimental: A total of 40 µL of each test sample was pipetted out in 96-well microliter plates. This was mixed with 40 µL of Aspergillus oryzae α-amylase (Sigma-Aldrich, Munich, Germany) solution (prepared in Na2SO4 buffer (0.02 M, pH = 6.9)). Incubation of solutions was executed at 37 °C for 10 min. After incubation, 40 µL of starch solution prepared in 1% DMSO was added into each well as a substrate and placed at 25 °C for 10 min. After this, 100 µL of 3,5-dinitrosalicylic acid (DNSA) was added and incubated for 5 min in boiling water. After cooling and dilution of mixtures with distilled water (400 μL), the absorbance was recorded at 540 nm wavelength [91] and 37 °C temperature with the help of a microplate reader. […] Each experiment was carried out thrice, and percentage inhibitions were determined with the help of following expression, followed by the determination of IC50 values. % Inhibition = [(Acontrol − Asample)/Acontrol] × 100 where A is absorbance.

The target in data set [6] is α-glucosidase. The experiment in a line: enzyme inhibition kinetics (Lineweaver–Burk), α-glucosidase. It is filed as biochemical, Saccharomyces cerevisiae. Conditions: secondary plots; PNPG 1–9 mM; read-out: Ki (inhibition constant), α-glucosidase. The text has this: (§1) The pattern of the Lineweaver–Burk plot can visualize the type of inhibition, as shown in Figure 6A−F. […] Secondary plots were drawn to determine the value of the inhibition constant Ki and the dissociation constant Ki’. Smaller Ki implies higher enzyme inhibition, implying the possibility of an allosteric binding site in the enzyme, to which synthetic drugs could bind.
(§2) The Lineweaver–Burk equation was used to determine the type of inhibition. α-Glucosidase and α-amylase activities were studied in the absence and presence of various sample concentrations (0.1 mM, 0.25 mM, 0.5 mM, 0.75 mM and 1.0 mM). For α-glucosidase inhibition kinetics, PNPG was used as a substrate, with different concentrations (1 mM, 3 mM, 5 mM, 7 mM and 9 mM). In α-amylase inhibition kinetics, various amounts of starch solution (0.25–2%) were tested. All experiments were carried out in triplicate, and the outcomes were written as mean ± S.D.

For a further data set, the target named is T2, α-amylase (Aspergillus oryzae, UniProt P0C1B3).
T2 construct: purchased Sigma-Aldrich, Munich, Germany
In words: enzyme inhibition kinetics (Lineweaver–Burk), α-amylase. Conditions: secondary plots; starch 0.25–2%; read-out: Ki (inhibition constant), α-amylase. In kind it is biochemical.
Text: as §1, §2

With `O=C(CN1C(C(=O)Nc2ccccc2)=C(O)c2ccccc2S1(=O)=O)Nc1cccc(C(F)(F)F)c1` [Compound 3], in [1], the negative-log IC50 (pIC50) is 7.39.
`O=C(CN1C(C(=O)Nc2ccc(F)c(Cl)c2)=C(O)c2ccc(F)cc2S1(=O)=O)Nc1ccc(C(F)(F)F)cc1` [Compound 4]: the negative-log IC50 (pIC50) in data set [2] was 6.06.
In the case of `O=C(O)/C=C1\CN(Cc2ccc(Br)cc2F)S(=O)(=O)c2ccccc21` [Compound 5], the pIC50 at aldose reductase is 6.96.
Consider `C/C(=N\NC(=O)C1=C(O)c2ccccc2S(=O)(=O)N1)c1ccccc1` [Compound 6], for which, at α-glucosidase [3], the pIC50 was 5.41.
`C/C(=N\NC(=O)C1=C(O)c2ccccc2S(=O)(=O)N1C)c1ccccc1` [Compound 7]: the pIC50 at α-glucosidase [3] was 5.38.
Take `COc1cccc(C(=O)C2=C(O)c3ccccc3S(=O)(=O)N2)c1` [Compound 11, (4-Hydroxy-1,1-dioxido-2H-benzo[e][1,2]thiazin-3-yl)(3-methoxyphenyl)methanone]: the “α-glucosidase inhibition (in words)” value in [4] is on record as “failed to show any remarkable inhibition”. For the same compound, the pIC50 in data set [5] is 3.83.
With `COc1cccc(C(=O)C2=C(O)c3ccccc3S(=O)(=O)N2CC(=O)Nc2ccccc2Cl)c1` [Compound 12a, N-(2-Chlorophenyl)-2-(4-hydroxy-3-(3-methoxybenzoyl)-1,1-dioxido-2H-benzo[e][1,2]thiazin-2-yl)acetamide], the melting point was in the range of 186 to 187 °C. The compound further gave a pIC50 in data set [4] of 4.33. In data set [5], the pIC50 is 4.88.
Take `COc1cccc(C(=O)C2=C(O)c3ccccc3S(=O)(=O)N2CC(=O)Nc2cccc(Cl)c2)c1` [Compound 12b, N-(3-Chlorophenyl)-2-(4-hydroxy-3-(3-methoxybenzoyl)-1,1-dioxido-2H-benzo[e][1,2]thiazin-2-yl)acetamide]: the “α-glucosidase inhibition (in words)” value in [4] is recorded as “failed to show any remarkable inhibition”.
`COc1cccc(C(=O)C2=C(O)c3ccccc3S(=O)(=O)N2CC(=O)Nc2ccc(Cl)cc2)c1` [Compound 12c, N-(4-Chlorophenyl)-2-(4-hydroxy-3-(3-methoxybenzoyl)-1,1-dioxido-2H-benzo[e][1,2]thiazin-2-yl)acetamide] came in with a melting point of 146 to 147 °C. In [4], the negative-log IC50 (pIC50) is 4.39. The compound also had a negative logarithm of the IC50 (pIC50) in [5] of 3.90.
On to `COc1cccc(C(=O)C2=C(O)c3ccccc3S(=O)(=O)N2CC(=O)Nc2ccccc2[N+](=O)[O-])c1` [Compound 12d, 2-(4-Hydroxy-3-(3-methoxybenzoyl)-1,1-dioxido-2H-benzo[e][1,2]thiazin-2-yl)-N-(2-nitrophenyl)acetamide], for which, in data set [4], the “α-glucosidase inhibition (in words)” value is “failed to show any remarkable inhibition”. Further, the figures for the pIC50 in data set [4] and in [5] were 3.99 and 4.82, respectively.
Turning to `COc1cccc(C(=O)C2=C(O)c3ccccc3S(=O)(=O)N2CC(=O)Nc2cccc([N+](=O)[O-])c2)c1` [Compound 12e, 2-(4-Hydroxy-3-(3-methoxybenzoyl)-1,1-dioxido-2H-benzo[e][1,2]thiazin-2-yl)-N-(3-nitrophenyl)acetamide], the melting point is 189 to 190 °C. Further, in data set [4], the “α-glucosidase inhibition (in words)” value is given as “failed to show any remarkable inhibition”. Moreover, the negative-log IC50 (pIC50) in [5] was 4.43.
In turn, `COc1cccc(C(=O)C2=C(O)c3ccccc3S(=O)(=O)N2CC(=O)Nc2ccc([N+](=O)[O-])cc2)c1` [Compound 12f, 2-(4-Hydroxy-3-(3-methoxybenzoyl)-1,1-dioxido-2H-benzo[e][1,2]thiazin-2-yl)-N-(4-nitrophenyl)acetamide] gave a melting point of 176 to 177 °C. Moreover, in data set [4], the negative-log IC50 (pIC50) is 4.01. Besides, the negative-log IC50 (pIC50) in [5] is 4.54.
On the same counts, the results for `COc1cccc(C(=O)C2=C(O)c3ccccc3S(=O)(=O)N2CC(=O)Nc2ccccc2Br)c1` [Compound 12g, N-(2-Bromophenyl)-2-(4-hydroxy-3-(3-methoxybenzoyl)-1,1-dioxido-2H-benzo[e][1,2]thiazin-2-yl)acetamide] are 169 to 171 °C, 4.45 and 4.93.
On the same counts, the results for `COc1cccc(C(=O)C2=C(O)c3ccccc3S(=O)(=O)N2CC(=O)Nc2cccc(Br)c2)c1` [Compound 12h, N-(3-Bromophenyl)-2-(4-hydroxy-3-(3-methoxybenzoyl)-1,1-dioxido-2H-benzo[e][1,2]thiazin-2-yl)acetamide] are 132 to 133 °C, 4.06 and 3.96.
For the compound `COc1cccc(C(=O)C2=C(O)c3ccccc3S(=O)(=O)N2CC(=O)Nc2ccc(Br)cc2)c1` [Compound 12i, N-(4-Bromophenyl)-2-(4-hydroxy-3-(3-methoxybenzoyl)-1,1-dioxido-2H-benzo[e][1,2]thiazin-2-yl)acetamide], the negative logarithm of the IC50 (pIC50) was 4.59 in data set [4] and 5.12 in data set [5]. Besides, the pKi on α-glucosidase [6] was 4.00; on α-amylase, 4.15.
`COc1cccc(C(=O)C2=C(O)c3ccccc3S(=O)(=O)N2CC(=O)Nc2ccccc2C)c1` [Compound 12j, 2-(4-Hydroxy-3-(3-methoxybenzoyl)-1,1-dioxido-2H-benzo[e][1,2]thiazin-2-yl)-N-(o-tolyl)acetamide] returned a melting point of 166 °C. Also, the “α-glucosidase inhibition (in words)” value in [4] was “failed to show any remarkable inhibition”.
`COc1cccc(C(=O)C2=C(O)c3ccccc3S(=O)(=O)N2CC(=O)Nc2cccc(C)c2)c1` [Compound 12k, 2-(4-Hydroxy-3-(3-methoxybenzoyl)-1,1-dioxido-2H-benzo[e][1,2]thiazin-2-yl)-N-(m-tolyl)acetamide] displayed a melting point of 150 to 151 °C. The same compound had a negative-log IC50 (pIC50) in data set [4] of 4.52. Besides, in [5], the pIC50 is 4.17.
`COc1cccc(C(=O)C2=C(O)c3ccccc3S(=O)(=O)N2CC(=O)Nc2ccccc2OC)c1` [Compound 12l, 2-(4-Hydroxy-3-(3-methoxybenzoyl)-1,1-dioxido-2H-benzo[e][1,2]thiazin-2-yl)-N-(2-methoxyphenyl)acetamide]: in data set [4], the “α-glucosidase inhibition (in words)” value was “failed to show any remarkable inhibition” and the pIC50 is 3.96.
`COc1ccc(NC(=O)CN2C(C(=O)c3cccc(OC)c3)=C(O)c3ccccc3S2(=O)=O)cc1` [Compound 12m, 2-(4-Hydroxy-3-(3-methoxybenzoyl)-1,1-dioxido-2H-benzo[e][1,2]thiazin-2-yl)-N-(4-methoxyphenyl)acetamide] had a melting point of 201 to 202 °C. Further, in [4], the “α-glucosidase inhibition (in words)” value is on record as “failed to show any remarkable inhibition”. Further, the pIC50 in data set [5] is 3.91.
